Measured values published in the supplement of paper PMC11451515.

Test system: NOMO1
Test: cell viability relative to DMSO control; higher = less cytotoxic
Conditions: 48 h
Procedure, shortened: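 Viability is expressed as a percentage of DMSO wells within each plate, and cell-free wells serve as background. Seeding densities in the 1536-well plates (5 μl) were 500 cells/well for NOMO1 or SEM leukemia cells and 1000 cells/well for P12-Ichikawa. Each line was adapted for at least four passages in each medium. Library compounds in DMSO were pin-dosed at 47 μM to 0.79 nM (11 points, threefold), and CellTiter-Glo One luminescence was read after 48 h at 37°C.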

[1] = HPLM + 10% dialyzed FBS, 0.000781 µM
[2] = HPLM + 10% dialyzed FBS, 0.00234 µM
[3] = HPLM + 10% dialyzed FBS, 0.00702 µM
[4] = HPLM + 10% dialyzed FBS, 0.0211 µM
[5] = HPLM + 10% dialyzed FBS, 0.0632 µM
[6] = HPLM + 10% dialyzed FBS, 0.19 µM
[7] = HPLM + 10% dialyzed FBS, 0.569 µM
[8] = HPLM + 10% dialyzed FBS, 1.71 µM
[9] = HPLM + 10% dialyzed FBS, 5.12 µM
[10] = HPLM + 10% dialyzed FBS, 15.4 µM
[11] = HPLM + 10% dialyzed FBS, 46.1 µM
[12] = RPMI 5 mM glucose + 10% FBS, 0.000781 µM
[13] = RPMI 5 mM glucose + 10% FBS, 0.00234 µM
[14] = RPMI 5 mM glucose + 10% FBS, 0.00702 µM
[15] = RPMI 5 mM glucose + 10% FBS, 0.0211 µM
[16] = RPMI 5 mM glucose + 10% FBS, 0.0632 µM
[17] = RPMI 5 mM glucose + 10% FBS, 0.19 µM
[18] = RPMI 5 mM glucose + 10% FBS, 0.569 µM
[19] = RPMI 5 mM glucose + 10% FBS, 1.71 µM
[20] = RPMI 5 mM glucose + 10% FBS, 5.12 µM
[21] = RPMI 5 mM glucose + 10% FBS, 15.4 µM
[22] = RPMI 5 mM glucose + 10% FBS, 46.1 µM
[23] = RPMI 5 mM glucose + 10% dialyzed FBS, 0.000781 µM
[24] = RPMI 5 mM glucose + 10% dialyzed FBS, 0.00234 µM
[25] = RPMI 5 mM glucose + 10% dialyzed FBS, 0.00702 µM
[26] = RPMI 5 mM glucose + 10% dialyzed FBS, 0.0211 µM
[27] = RPMI 5 mM glucose + 10% dialyzed FBS, 0.0632 µM
[28] = RPMI 5 mM glucose + 10% dialyzed FBS, 0.19 µM
[29] = RPMI 5 mM glucose + 10% dialyzed FBS, 0.569 µM
[30] = RPMI 5 mM glucose + 10% dialyzed FBS, 1.71 µM
[31] = RPMI 5 mM glucose + 10% dialyzed FBS, 5.12 µM
[32] = RPMI 5 mM glucose + 10% dialyzed FBS, 15.4 µM
[33] = RPMI 5 mM glucose + 10% dialyzed FBS, 46.1 µM

| SMILES | cell viability [1] [%] | cell viability [2] [%] | cell viability [3] [%] | cell viability [4] [%] | cell viability [5] [%] | cell viability [6] [%] | cell viability [7] [%] | cell viability [8] [%] | cell viability [9] [%] | cell viability [10] [%] | cell viability [11] [%] | cell viability [12] [%] | cell viability [13] [%] | cell viability [14] [%] | cell viability [15] [%] | cell viability [16] [%] | cell viability [17] [%] | cell viability [18] [%] | cell viability [19] [%] | cell viability [20] [%] | cell viability [21] [%] | cell viability [22] [%] | cell viability [23] [%] | cell viability [24] [%] | cell viability [25] [%] | cell viability [26] [%] | cell viability [27] [%] | cell viability [28] [%] | cell viability [29] [%] | cell viability [30] [%] | cell viability [31] [%] | cell viability [32] [%] | cell viability [33] [%] |
| --- | --- | --- | --- | --- | --- | --- | --- | --- | --- | --- | --- | --- | --- | --- | --- | --- | --- | --- | --- | --- | --- | --- | --- | --- | --- | --- | --- | --- | --- | --- | --- | --- | --- |
| CC(C)(C)C(=O)Oc1ccc([S+](=O)([O-])Nc2ccccc2C(=O)NCC(=O)O)cc1 | 115 | 106 | 139 | 122 | 117 | 110 | 109 | 113 | 129 | 122 | 134 | 107 | 102 | 99.7 | 98.4 | 112 | 108 | 114 | 117 | 104 | 109 | 129 | 110 | 117 | 113 | 122 | 109 | 122 | 119 | 116 | 129 | 131 | 124 |
| O=C(/C=C/c1c(C(=O)[O-])[nH]c2cc(Cl)cc(Cl)c12)Nc1ccccc1 | 112 | 115 | 116 | 116 | 99.9 | 117 | 118 | 110 | 113 | 112 | 108 | 90.5 | 99 | 99.5 | 95.1 | 101 | 116 | 107 | 107 | 107 | 124 | 107 | 110 | 109 | 114 | 126 | 126 | 120 | 115 | 120 | 111 | 127 | 118 |
| O=C(/C=C/c1cccc([S+](=O)([O-])Nc2ccccc2)c1)NO | 143 | 112 | 121 | 120 | 154 | 132 | 139 | 129 | 88 | 12.2 | 9.85 |  |  |  |  |  |  |  |  |  |  |  |  |  |  |  |  |  |  |  |  |  |  |
| N=C(N)NC(=O)c1nc(Cl)c(N)nc1N | 110 | 114 | 132 | 133 | 134 | 130 | 133 | 54.1 | 35.8 | 35 | 36.9 |  |  |  |  |  |  |  |  |  |  |  | 112 | 134 | 123 | 134 | 133 | 129 | 136 | 72.5 | 33.3 | 29.2 | 29.1 |
| O=C1C[C@@H](c2ccc(O)cc2)Oc2cc(O)cc(O)c21 |  |  |  |  |  |  |  |  |  |  |  | 128 | 104 | 104 | 100 | 126 | 124 | 116 | 107 | 127 | 106 | 111 | 111 | 108 | 117 | 110 | 120 | 110 | 119 | 108 | 86.2 | 109 | 97.9 |
| CCNC(=O)c1cc2c(-c3cc(OCCN4CCCC4)c(Cl)cc3Cl)nc(N)nc2s1 | 105 | 121 | 92.7 | 107 | 102 | 104 | 105 | 86.6 | 47.3 | 17.2 | 15.8 | 84.7 | 93.6 | 95.6 | 85.6 | 95.8 | 109 | 88.2 | 88.9 | 32.3 | 13.2 | 10.1 | 107 | 103 | 115 | 111 | 82.8 | 107 | 93.2 | 76.8 | 51.2 | 18.3 | 12.5 |
| CCN(CC)C(=S)SSC(=S)N(CC)CC | 97.9 | 112 | 135 | 130 | 131 | 121 | 147 | 132 | 5.58 | 46.8 | 2.75 | 104 | 112 | 119 | 120 | 129 | 110 | 127 | 127 | 4.7 | 12.4 | 3.34 | 114 | 120 | 131 | 122 | 123 | 128 | 131 | 120 | 6.51 | 5.46 | 2.56 |
| c1cc(CN2CCCNCCNCCCNCC2)ccc1CN1CCCNCCNCCCNCC1 | 79.6 | 109 | 100 | 30.5 | 117 | 108 | 102 | 109 | 109 | 106 | 104 | 88.4 | 85.8 | 97.8 | 18.6 | 89.2 | 105 | 86.7 | 88.4 | 85.4 | 101 | 92.5 | 89.2 | 78.2 | 83.5 | 33 | 98.3 | 93.9 | 102 | 92.7 | 91.3 | 91.4 | 93.4 |
| CC(=O)O[C@@]1(CC[C@H]2[C@@H]3\C=C(C)/C4=C/C(=O)CC[C@]4(C)[C@H]3CC[C@]12C)C(C)=O | 115 | 111 | 107 | 96.1 | 109 | 123 | 130 | 107 | 110 | 116 | 119 | 100 | 102 | 99.9 | 110 | 101 | 108 | 107 | 110 | 109 | 99 | 108 | 88.1 | 92.1 | 95.5 | 113 | 102 | 112 | 107 | 118 | 105 | 86.8 | 112 |
